The results in this text go back to patent publication US5801174A, “Fused indole and quinoxaline derivatives, their preparation and use” (Neurosearch A/S, priority 1994, dated 1998).

Test [1] relates to AMPA-induced clonic seizures in NMRI mice. The experiment in a line: AMPA-induced clonic seizures. The format is in vivo. The conditions noted are these: Mus musculus; i.v. 5 min (or p.o. 30 min) before 0.3 μg icv AMPA, 10 female NMRI mice per dose; route of the value not given; read-out: ED50 (dose inhibiting 50% of the mice from having clonic seizures). As to the method: The compound, 8-methyl-5-(4(N,N-dimethylsulphamoyl)-phenyl)-6,7,8,9-tetrahydro-1H-pyrrolo[3,2-h]isoquinoline-2,3-dione-3-oxime has also been tested for its ability to inhibit the clonic seizures induced by AMPA in the following test:
In Vivo activity (AMPA-induced clonic seizures)
AMPA given icv (intracerebroventricular) (15 μg/kg) to NMRI mice induces clonic seizures which should be inhibited by non-NMDA receptor antagonists. Method: Test compound was given i.v. 5 min (or p.o. 30 min) before a 0.3 μg icv administration of AMPA to 10 female NMRI mice (weighing 24-26 g) per dose. The number of mice experiencing clonic seizures within the next 5 min was noted. An ED50 value was calculated as the dose inhibiting 50% of the mice from having clonic seizures.

Test [2] deals with gerbil hippocampus CA1-layer, global ischaemia. Nature of the test: Transient Forebrain Ischemia Model (2-VO Gerbils). It counts as in vivo. The note with it: 30 mg/kg i.p. 30, 60 and 90 min post occlusion (total 90 mg/kg); ischaemic score 4 days later; Mann-Whitney test. As to the method:
The compound, 8-methyl-5-(4-(N,N-dimethylsulphamoyl)-phenyl)-6,7,8,9-tetrahydro-1H-pyrrolo[3,2-h]isoquinoline-2,3-dione-3-oxime has also been tested in the following animal model of global ischaemia:
Transient Forebrain Ischemia Model (2-VO Gerbils)
Gerbils were anaesthetized with halothane, right and left carotid arteries located and occluded for 4 minutes. Animals were kept warm before and after the operation using heating lamps. During the operation the gerbils were placed on heating plates, body temperature controlled and maintained at 37°±0.5° C. Postocclusion, the gerbils were divided in two groups. One group received 30 mg/kg test compound i.p. 30, 60, and 90 min post occlusion (total dose was 90 mg/kg). The control group received 5.5% glucose i.p. at the same time intervals. Four days later, the animals were sacrificed, brains removed and cooled to -70° C. Thereafter, the brains were sectioned in […] thick sections of which 5-7 with hippocampal tissue were selected and stained with hematoxylin eosine (HE).
Based upon the degree of hippocampal damage, each hippocampus was categorised into one of four groups (Group 1: no damage in the CA1-layer; Group 2: the CA1-layer partly damaged; Group 3: the CA1-layer completely damaged; and Group 4: damage in more than just the CA1-layer). […]

The test system of test [3] is cultured cerebral cortex neurons. Nature of the test: 3H-GABA release, cultured cerebral cortex neurons. The format is cell-based. The note with it: Cerebral cortex neuron; inhibition of stimulated 3H-GABA release, mouse cortical neurons, Table 1. From the text:
The compounds of the invention have also been tested for their ability to inhibit GABA release from cultured cerebral cortex neurons in the following test:
^3 H-GABA Release, Cortical Neurons
Background: Neurons which express receptors for excitatory amino acids can be depolarized by such compounds and this depolarization will ultimately lead to a release of transmitter substance from the neurons. Cultured neurons obtained from 15-day-old mouse embryo cortex are mainly GABAergic and express all types of excitatory amino acid receptors. This means that they can be stimulated by high potassium or by the excitatory amino acids, NMDA, AMPA and kainate to release their neurotransmitter GABA.
^3 H-GABA may be used to label the GABA transmitter pool in the neurons and the release of ^3 H-GABA from the neurons may be used as a simple functional model for studies of the effects of excitatory amino acids and their antagonists.
Method: Cerebral cortices of 16-day-old mouse embryos are chopped in 0.4×0.4 mm cubes. The tissue is dissociated by mild trypsinization (0.1% (wt/vol) trypsin, 37° C., 15 min) and subsequently inoculated into poly-L-lysine-coated 3-cm Petri dishes containing a slightly modified DMEM (24.5 mM KCI, 30 mM glucose) supplemented with p-aminobenzoate (7 μM), insulin (100 mU/L) and 10% (vol/vol) horse serum. Cells are maintained in culture for 5-7 days with the addition of the antimitotic agent cytosine arbinoside (40 μM) from day 2 in vitro to prevent glial profileration. For further details and references, see Drejer et al. Exp. Brain Res. 47, 259 (1982).
Release experiments are performed using the model described by Drejer et al. Life Sci. 38, 2077 (1986). Cerebral cortex neurons cultured in Petri dishes (30 mm) are added 100 μM γ-vinyl-GABA one hour before the experiment in order to inhibit degradation of GABA in the neurons. 30 min before the experiment 5 μCi ^3 H-GABA is added to each culture and after this preloading period the cell monolayer at the bottom of the dish is covered with a piece of nylon mesh to protect the cells against mechanical damage and to facilitate dispersion of medium over the cell layer. The preloading medium is removed and the Petri dishes are placed in a superfusion system consisting of a peristaltic pump continously delivering thermostated 37° C. superfusion medium HEPES buffered saline (HBS): 10 mM HEPES, 135 mM NaCl, 5 mM KCI, 0.6 mM MgSO4, 1.0 mM CaCl2 and 6 mM D-glucose; pH 7.4) from a reservoir to the top of the slightly tilted Petri dish. The medium is continously collected from the lower part of the dish and delivered to a fraction collector. Initially, the cells are superfused with HBS for 15 min (flow rate 2 ml/min). Then the cells are stimulated for 30 sec every 4 min by changing the superfusion medium from HBS to a corresponding medium containing […].
Test subtances are dissolved in 50% DMSO, 48% ethanol. The final DMSO and ethanol concentration in the assay must not exceed 0.1%.
The stimulated release of ^3 H-GABA (cpm) are corrected for the mean basal release(cpm) before and after stimulation.
The stimulated release in the presence of antagonists are expressed relative to the stimulated release and the IC50 value for the antagonist is calculated (the concentration (μM) of the test substance which inhibit 50% of the stimulated ^3 H-GABA release).
(§1) The test results obtained by testing the compounds of the invention for their in-vitro AMPA receptor affinity and their ability to inhibit GABA release are presented in the following table: […]

In a further test the target is AMPA receptor. Nature of the test: AMPA receptor binding affinity (in vitro). The note with it: Table 1.
Excerpt: In Vitro activity (receptor affinity):
as §1

Each structure is given as a SMILES string.

Regarding `CN1CCc2c(-c3ccc(S(=O)(=O)N(C)C)cc3)cc3c(c2C1)NC(=O)C3=NO` [8-methyl-5-(4-(N,N-dimethylsulphamoyl)-phenyl)-6,7,8,9-tetrahydro-1H-pyrrolo[3,2-h]-isoquinoline-2,3-dione-3-oxime], in test [1], the ED50 amounted to 3 mg/kg. In test [2], the “neuroprotective effect in the gerbil 2-VO model” value is “significant neuroprotective effect”. In addition, the IC50 was 120 nM in test [3] and 20 nM at AMPA receptor.

`CON=C1C(=O)Nc2c1cc(-c1ccc(S(=O)(=O)N(C)C)cc1)c1c2CN(C)CC1` [8-methyl-5-(4-(N,N-dimethylsulphamoyl)-phenyl)-6,7,8,9-tetrahydro-1H-pyrrolo[3,2-h]-isoquinoline-2,3-dione-3-O-methyloxime]: the results for the IC50 (in test [3]; at AMPA receptor) were 1700 nM and 200 nM, respectively.

The ED50 is the midpoint of the dose-response relation. One may read the IC50 as the concentration that inhibits the measured activity by half.
